Literature values in US12303506B2, “Trabectedin composition” (EXTROVIS AG, priority 2022, dated 2025).

Settings: background statement

Which aqueous solubility does the source give for `COc1cc2c(cc1O)CCN[C@]21CS[C@@H]2c3c(OC(C)=O)c(C)c4c(c3[C@H](COC1=O)N1[C@@H]2[C@H]2c3c(cc(C)c(OC)c3O)C[C@@H]([C@@H]1O)N2C)OCO4` [Trabectedin, (1′R,6R,6aR,7R,13S,14S,16R)-5(acetyloxy)-3′,4′,6,6a,7,13,14,16-octahydro-6′,8,14-trihydroxy-7′,9-dimethoxy-4,10,23 trimethylspiro[6,16-(epithiopropanoxymethano)-7,13-imino-12H-1,3dioxolo[7,8]isoquino[3,2b][3]benzazocine-20,1′(2′H)-isoquinolin]-19-one] here?
The aqueous solubility was “limited aqueous solubility”.
